Consider four molecules from patent US7820673B2, “Urea derivative, process for producing the same, and use” (Takeda Pharmaceutical Company Limited, priority 2003, dated 2010).

For orientation: IC50 means the concentration needed to halve the response being measured. A high value points to weaker potency in that assay.

In this assay the target is human FXa (Homo sapiens, UniProt P00742). Kind of assay: Human activated blood coagulation factor X (FXa) inhibitory action. It counts as biochemical. Conditions: concentration inhibiting 50% of the FXa action; substrate S-2765, 37° C., absorbance at 405 nm. Here is the method: (1) Human Activated Blood Coagulation Factor X (FXa) Inhibitory Action
Sequence of human FXa (P00742 235-488 limits assumed): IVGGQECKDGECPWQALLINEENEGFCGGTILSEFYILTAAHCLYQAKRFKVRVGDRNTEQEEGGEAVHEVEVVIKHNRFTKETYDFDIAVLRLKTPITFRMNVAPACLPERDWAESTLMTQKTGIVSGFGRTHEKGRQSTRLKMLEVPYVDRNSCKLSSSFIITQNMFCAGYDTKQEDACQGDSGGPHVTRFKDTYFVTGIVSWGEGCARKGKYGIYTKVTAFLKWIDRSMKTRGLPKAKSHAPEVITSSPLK
Sequence of human FXa (P00742 41-179 partner limits assumed): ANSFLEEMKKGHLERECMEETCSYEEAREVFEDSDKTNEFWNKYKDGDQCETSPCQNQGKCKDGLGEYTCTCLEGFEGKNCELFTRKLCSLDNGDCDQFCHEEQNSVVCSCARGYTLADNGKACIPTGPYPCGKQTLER
Method of experiment: 225 μl of a 0.05 M Tris hydrochloride buffer (pH 8.3) containing 0.145 M sodium chloride and 2 mM calcium chloride, 5 μl of a sample (the test compound is dissolved in dimethylsulfoxide), and 10 μl of human FXa (0.3 unit/ml) were added to a 96-well microplate to react at 37° C. for about 10 minutes, and then 10 μl of a substrate (3 mM, S-2765) was added thereto to react at 37° C. for about 10 minutes. Subsequently, 25 μl of a 50% aqueous acetic acid solution was added to terminate the reaction, and then the change in the absorbance at 405 nm was measured with a spectrophotometer to calculate the concentration inhibiting 50% of the FXa action (IC50).
Molecule `Cc1ncc2n1C(=O)N(N1CCN(C(=O)[C@H](NC(=O)Nc3ccc(Cl)cc3)C(C)(C)C)CC1)C2` [Example 20, N—(4-chlorophenyl)—N′—((1R)-2,2-dimethyl-1-((4-(5-methyl-3-oxo-1H-imidazo[1,5-c]imidazol-2(3H)-yl)-1-piperazinyl)carbonyl)propyl)urea] yielded an IC50 of 18 nM.

Molecule `CCC(O)(CC)C(NC(=O)Nc1ccc(Cl)cc1)C(=O)N1CCN(N2Cc3cnc(C)n3C2=O)CC1` (stereo not shown) [Example 37, N—(4-chlorophenyl)—N ′—(2-ethyl-2-hydroxy-1-((4-(5-methyl-3-oxo-1H-imidazo[1,5-c]imidazol-2(3H)-yl)-1-piperazinyl)carbonyl)butyl)urea] came in with an IC50 of 26 nM.

`COC(C)(C)C(NC(=O)Nc1ccc(Cl)cc1)C(=O)N1CCN(N2Cc3cnc(C)n3C2=O)CC1` (stereo not shown) [Example 74, N-(4-chlorophenyl)-N′-(2-methoxy-2-methyl-1-((4-(5-methyl-3-oxo-1H-imidazo[1,5-c]imidazol-2(3H)-yl)-1-piperazinyl)carbonyl)propyl)urea] showed an IC50 of 50 nM.

For `CSC(C)(C)[C@@H](NC(=O)Nc1ccc(Cl)cc1)C(=O)N1CCN(N2Cc3cnc(C)n3C2=O)CC1` [Example 40, N—(4-chlorophenyl)—N′—((1S)-2-methyl-1-((4-(5-methyl-3-oxo-1H-imidazo[1,5-c]imidazol-2(3H)-yl)-1-piperazinyl)carbonyl)-2-(methylthio)propyl)urea], the IC50 was 10 nM.
